The text below walks through data of patent US20250215029A1 (Recludix Pharma, Inc., priority 2022, published 2025).

A value given as a limit tells only on which side of the number the result lay.

For the first assay, the target named is T1, pY641-STAT6 in PBMC (Homo sapiens, UniProt P42226).
T1 construct: Cryopreserved Peripheral Blood Mononuclear Cells (PBMC) are from AllCells; host or cells: cryopreserved PBMC
T1 sequence (P42226 1-847): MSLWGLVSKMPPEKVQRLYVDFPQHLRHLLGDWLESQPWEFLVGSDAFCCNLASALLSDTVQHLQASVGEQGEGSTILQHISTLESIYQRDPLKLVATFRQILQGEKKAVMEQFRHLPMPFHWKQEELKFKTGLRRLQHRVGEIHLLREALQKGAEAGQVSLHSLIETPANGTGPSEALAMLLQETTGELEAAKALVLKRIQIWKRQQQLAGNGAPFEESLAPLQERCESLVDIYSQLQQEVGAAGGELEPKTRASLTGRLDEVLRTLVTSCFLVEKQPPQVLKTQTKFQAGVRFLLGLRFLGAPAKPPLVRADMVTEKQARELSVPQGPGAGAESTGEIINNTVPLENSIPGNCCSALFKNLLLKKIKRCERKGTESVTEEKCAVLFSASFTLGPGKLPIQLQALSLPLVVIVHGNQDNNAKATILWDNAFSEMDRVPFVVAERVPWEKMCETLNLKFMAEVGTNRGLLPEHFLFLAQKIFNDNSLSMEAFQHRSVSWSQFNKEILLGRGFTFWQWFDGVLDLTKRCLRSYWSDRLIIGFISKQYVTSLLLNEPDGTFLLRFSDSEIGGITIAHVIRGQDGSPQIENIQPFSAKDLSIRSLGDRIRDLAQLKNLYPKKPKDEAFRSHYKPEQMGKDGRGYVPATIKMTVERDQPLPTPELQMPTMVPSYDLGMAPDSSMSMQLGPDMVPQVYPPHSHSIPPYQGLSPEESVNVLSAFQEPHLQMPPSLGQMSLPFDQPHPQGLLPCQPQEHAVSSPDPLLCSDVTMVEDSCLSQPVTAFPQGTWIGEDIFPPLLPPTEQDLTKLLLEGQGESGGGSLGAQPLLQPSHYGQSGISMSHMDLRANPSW
Nature of the assay: MSD-pSTAT-PBMC Assay (pSTAT6, IL-4 stimulated). Particulars: STAT6, PBMC, compound 3 hrs, then 1 ng/mL IL-4 for 10 min; Table 115. The assay is classed as cell-based. From the text:
Cryopreserved Peripheral Blood Mononuclear Cells (PBMC) are from AllCells. Recombinant Human IL-4 and IL-6 are from Peprotech. Mouse monoclonal anti-STAT3 antibody, rabbit monoclonal anti-pY705-STAT3 antibody, rabbit monoclonal Anti-pY641-STAT6 antibody, and lysis buffer are from Cell Signaling Technology (CST). Mouse monoclonal anti-STAT6 antibody is from BioLegend. Assay plates, blocker, and anti-rabbit secondary antibody are from Meso Scale Discovery (MSD).
Cyropreserved PBMCs were thawed out and allowed to recover overnight in IMDM+10% heat-inactivated FBS prior to plating 50,000 (STAT3) or 25,000 (STAT6) cells per well in 96-well U-bottom tissue culture plates. Cells were treated with compound for 3 hrs, then stimulated with 10 ng/mL IL-6 (STAT3) or 1 ng/mL IL-4 (STAT6) for 10 min. Cells were then spun down and washed with ice-cold PBS prior to lysing the cell pellet with 1× lysis buffer (CST) with 1× HALT protease and phosphatase inhibitor cocktail (Thermo). Lysates were transferred to and incubated overnight at 4° C. with shaking in QuickPlex 96-well high bind assay plates (MSD) pre-coated overnight with 30 μL per well of 0.6 μg/mL mouse monoclonal anti-STAT3 antibody (STAT3) or 2 μg/mL mouse monoclonal anti-STAT6 antibody (STAT6) in 1× PBS, and pre-blocked for 1 hour with 3% Blocker-A (MSD). Captured protein in the assay plates were then washed and probed with 25 μL per well of […] rabbit monoclonal anti-pY705-STAT3 antibody (STAT3) or 0.18 μg/ml rabbit monoclonal Anti-pY641-STAT6 antibody (STAT6) in 1% Blocker-A for 1 hour at room temperature with shaking, then washed and probed with 25 ul per well of 1 ug/ml Sulfo-TAG Labeled Goat Anti-Rabbit Antibody (MSD) in 1% Blocker-A for 1 hour at room temperature with shaking. Assay plates were then washed and 150 μL of 1× Read Buffer-T (MSD) was added to each well prior to reading on an SQ120 MSD Plate Reader. Assay signal from each sample was subtracted by the signal from unstimulated control wells and normalized to DMSO control wells. IC50 values were calculated using Graph Pad Prism Dose-Response Nonlinear Regression with variable slope. For both pSTAT3 and pSTAT6 A=≤100 nM; B 100-1000 nM; C=>1000-3000 nM; D=>3 μM; and NT=Not Tested.
In the case of `CCCOC(=O)[C@H](C)NP(=O)(Oc1ccccc1)C(F)c1ccc2ccc(C(=O)N[C@H]3CCCC[C@H]4CC[C@@H](C(=O)N5C[C@@H](C#N)[C@H](c6ccccc6)C5)N4C3=O)cc2c1` (single isomer, unassigned) [Compound 316], the IC50 is < 0.1 µM. Same read-out and setting: the result for `CCCOC(=O)[C@H](C)NP(=O)(Oc1ccccc1)C(F)c1ccc2sc(C(=O)N[C@H]3CCCC[C@H]4CC[C@@H](C(=O)N5C[C@@H](C#N)[C@H](c6ccn(C)c(=O)c6)C5)N4C3=O)cc2c1` (single isomer, unassigned) [Compound 318] reads > 3 µM; that for `CCCOC(=O)[C@H](C)NP(=O)(Oc1ccccc1)C(F)c1ccc2sc(C(=O)N[C@H]3CCCC[C@H]4CC[C@@H](C(=O)N5C[C@@H](C#N)[C@H](c6ccn(C)c(=O)c6)C5)N4C3=O)cc2c1` (single isomer, unassigned) [Compound 319], 1 to 3 µM; that for `CCCOC(=O)[C@H](C)NP(=O)(Oc1ccccc1)[C@H](F)c1ccc2sc(C(=O)N[C@H]3CCCC[C@H]4CC[C@@H](C(=O)N5C[C@@H](C#N)[C@H](c6ccccc6)C5)N4C3=O)cc2c1` (single isomer, unassigned) [Compound 321], < 0.1 µM. The same measure, in the same setting: the result for `CCCOC(=O)[C@H](C)NP(=O)(Oc1ccccc1)[C@@H](F)c1ccc2sc(C(=O)N[C@H]3CCCC[C@H]4CC[C@@H](C(=O)N5C[C@H](c6cccc(OC)c6)[C@@H](C#N)C56CC6)N4C3=O)cc2c1` (single isomer, unassigned) [Compound 335] reads < 0.1 µM; that for `CCCOC(=O)[C@H](C)NP(=O)(Oc1ccccc1)[C@@H](F)c1ccc2sc(C(=O)N[C@H]3CCCC[C@H]4CC[C@@H](C(=O)N5C[C@H](c6cccc(C#N)c6)[C@@H](C#N)C56CC6)N4C3=O)cc2c1` (single isomer, unassigned) [Compound 339], < 0.1 µM. As for `CCCOC(=O)[C@H](C)NP(=O)(Oc1ccccc1)[C@@H](F)c1ccc2sc(C(=O)N[C@H]3CCC[C@H]4CC[C@@H](C(=O)N5C[C@@H](c6cccc(C)c6)[C@H](C#N)C56CC6)N4C3=O)cc2c1` (single isomer, unassigned) [Compound 341], the IC50 is < 0.1 µM. Still for that read-out and setting: the result for `CCCOC(=O)[C@H](C)NP(=O)(Oc1ccccc1)[C@H](F)c1ccc2sc(C(=O)N[C@H]3CCC[C@H]4CC[C@@H](C(=O)N5C[C@@H](c6cccnc6)[C@H](C#N)C56CC6)N4C3=O)cc2c1` (single isomer, unassigned) [Compound 355] reads < 0.1 µM. On the same count and under the same terms, the result for `CCCOC(=O)[C@H](C)NP(=O)(Oc1ccccc1)[C@@H](F)c1ccc2sc(C(=O)N[C@H]3CCC[C@H]4CC[C@@H](C(=O)N5C[C@H](c6cccnc6)[C@@H](C#N)C56CC6)N4C3=O)cc2c1` (single isomer, unassigned) [Compound 362] reads < 0.1 µM; that for `CCCOC(=O)[C@H](C)NP(=O)(Oc1ccccc1)[C@@H](F)c1ccc2sc(C(=O)N[C@H]3CCC[C@H]4CC[C@@H](C(=O)N5C[C@H](c6cncc(Cl)c6)[C@@H](C#N)C56CC6)N4C3=O)cc2c1` (single isomer, unassigned) [Compound 367], 0.1 to 1 µM; that for `CCCOC(=O)[C@H](C)NP(=O)(Oc1ccccc1)[C@@H](F)c1ccc2sc(C(=O)N[C@H]3CCC[C@H]4CC[C@@H](C(=O)N5C[C@H](c6cncc(Cl)c6)[C@@H](C#N)C56CC6)N4C3=O)cc2c1` (single isomer, unassigned) [Compound 368], > 3 µM. For the compound `CCCOC(=O)[C@H](C)NP(=O)(Oc1ccccc1)[C@@H](F)c1ccc2sc(C(=O)N[C@H]3CCC[C@H]4CC[C@@H](C(=O)N5C[C@H](c6cncc(OC)c6)[C@@H](C#N)C56CC6)N4C3=O)cc2c1` (single isomer, unassigned) [Compound 369], the IC50 was in the range of 1 to 3 µM. The same measure, in the same setting: the result for `CCCOC(=O)[C@H](C)NP(=O)(Oc1ccccc1)[C@@H](F)c1ccc2sc(C(=O)N[C@H]3CCCC[C@H]4CC[C@@H](C(=O)N5C[C@H](c6cncc(Cl)c6)[C@@H](C#N)C56CC6)N4C3=O)cc2c1` (single isomer, unassigned) [Compound 370] reads < 0.1 µM. Same read-out and setting: the result for `CCCOC(=O)[C@H](C)NP(=O)(Oc1ccccc1)[C@@H](F)c1ccc2sc(C(=O)N[C@H]3CCCC[C@H]4CC[C@@H](C(=O)N5C[C@H](c6cncc(Cl)c6)[C@@H](C#N)C56CC6)N4C3=O)cc2c1` (single isomer, unassigned) [Compound 371] reads 1 to 3 µM. Same read-out and setting: the result for `CCCOC(=O)[C@H](C)NP(=O)(Oc1ccccc1)[C@@H](F)c1ccc2sc(C(=O)N[C@H]3CCCC[C@H]4CC[C@@H](C(=O)N5C[C@H](c6cncc(OC)c6)[C@@H](C#N)C56CC6)N4C3=O)cc2c1` (single isomer, unassigned) [Compound 372] reads > 3 µM; that for `CCCOC(=O)[C@H](C)NP(=O)(Oc1ccccc1)C(C)c1ccc2ccc(C(=O)N[C@H]3CCCC[C@H]4CC[C@@H](C(=O)N5C[C@@H](c6ccccc6)CC56CC6)N4C3=O)cc2c1` (single isomer, unassigned) [Compound 425], > 3 µM; that for `CCCOC(=O)[C@H](C)N[P@@](=O)(Oc1ccccc1)[C@@H](F)c1ccc2sc(C(=O)N[C@H]3CCCC[C@H]4CC[C@@H](C(=O)N5C[C@@H](c6cccnc6)CC56CC6)N4C3=O)cc2c1` (single isomer, unassigned) [Compound 461], < 0.1 µM. Regarding `CCCOC(=O)[C@H](C)NP(=O)(Oc1ccccc1)[C@@H](F)c1ccc2sc(C(=O)N[C@H]3CCC[C@H]4CC[C@@H](C(=O)N5C[C@H](c6ccc(C)cc6)[C@@H](C#N)C56CC6)N4C3=O)cc2c1` (single isomer, unassigned) [Compound 478], the IC50 is < 0.1 µM.

The assay is the same for the next values; noted with them: read-out: STAT6; PBMC, compound 3 hrs, then 1 ng/mL IL-4 for 10 min; Table 115.
Take `CCCOC(=O)[C@H](C)NP(=O)(Oc1ccccc1)C(F)c1ccc2sc(C(=O)N[C@H]3CCCC[C@H]4CC[C@@H](C(=O)N5C[C@@H](C#N)[C@H](c6ccccc6)C5)N4C3=O)cc2c1` (single isomer, unassigned) [Compound 317]: the IC50 was < 0.1 µM. Still for that read-out and setting: the result for `CCCOC(=O)[C@H](C)NP(=O)(Oc1ccccc1)[C@@H](F)c1ccc2sc(C(=O)N[C@H]3CCCC[C@H]4CC[C@@H](C(=O)N5C[C@H](c6cccc(OC)c6)[C@@H](C#N)C56CC6)N4C3=O)cc2c1` (single isomer, unassigned) [Compound 336] reads < 0.1 µM; that for `CCCOC(=O)[C@H](C)NP(=O)(Oc1ccccc1)[C@@H](F)c1ccc2sc(C(=O)N[C@H]3CCCC[C@H]4CC[C@@H](C(=O)N5C[C@H](c6cccc(C#N)c6)[C@@H](C#N)C56CC6)N4C3=O)cc2c1` (single isomer, unassigned) [Compound 340], < 0.1 µM. As for `CCCOC(=O)[C@H](C)NP(=O)(Oc1ccccc1)[C@@H](F)c1ccc2sc(C(=O)N[C@H]3CCC[C@H]4CC[C@@H](C(=O)N5C[C@@H](c6cccc(C)c6)[C@H](C#N)C56CC6)N4C3=O)cc2c1` (single isomer, unassigned) [Compound 342], the IC50 is < 0.1 µM. In the case of `CCCOC(=O)[C@H](C)NP(=O)(Oc1ccccc1)[C@@H](F)c1ccc2sc(C(=O)N[C@H]3CCC[C@H]4CC[C@@H](C(=O)N5C[C@H](c6cccnc6)[C@@H](C#N)C56CC6)N4C3=O)cc2c1` (single isomer, unassigned) [Compound 363], the IC50 was < 0.1 µM.
